Measured values: publication PMC4982898, “Molecular Design, Structural Analysis and Antifungal Activity of Derivatives of Peptide CGA-N46” (Interdisciplinary Sciences, Computational Life Sciences, 2016)

Tests used:
Assay type in all cases: cell-based
[1] = system: Candida tropicalis (ATCC-20240); experiment: Antifungal MIC, broth microdilution with MTT; settings: most sensitive yeast
Method: (§1) Candida glabrata (ATCC-90525), Candida parapsilosis (ATCC-20224), Candida krusei (ATCC-6258), Candida tropicalis (ATCC-20240), Candida albicans (ATCC-2048) were supplied by the Chinese Academy of Medical Sciences.
(§2) Minimum inhibitory concentrations (MICs) of CGA-N46 and its derivatives against fungi were measured according to a modified version of broth microdilution method of the Clinical and Laboratory Standards Institute (CLSI). Fungi cell’s viability was assessed based on the reduction of 3-[4,5-dimethylthiazolyl]-2,5-diphenyltetrazolium bromide (MTT) into formazan dye by active mitochondria. Briefly, peptides were serially twofold diluted in 20 mM PBS (pH 6.0) to a final concentration between 2 mg mL^−1 and 3.9 µg mL^−1. Subsequently, 100 μL samples was dispensed into the wells of a 96-U-shaped-well plate, and each was mixed with 100 μL of the 2 × inoculum suspension (1–5 × 10^4 CFU mL^−1) of a log-phase fungal culture in Sabouraud (SD) broth. Strains without treatment with peptides were used as negative control. The cultures were incubated at 30 °C without agitation for 16 h. 10 μL of MTT solution (5 mg mL^−1 MTT in PBS) was added to each well, and the plate was further incubated for 4 h. After rinsed, 100 μL of dimethylsulfoxide (DMSO) was added to dissolve the MTT formazan crystals. The inhibition of growth was determined by measuring the absorbance at 570 nm with a microplate reader. The relative cellular activity was calculated according to the following formula: cell survival inhibition rate (\% of control)= [(OD570of the negative sample-OD570of the treated sample) / OD570of the negative control]×100\%.
(§3) Each test was performed in triplicate, and the data were expressed as the mean ± SE.

[2] = system: Human red blood cells (RBCs)
Method: Hemolytic activity was tested according to the method. Briefly, peptides were serially twofold diluted using PBS in 96-well plates to give a volume of 100 μL of the sample solution in each well, and the final concentration of peptides ranged between 2.0 mg mL^−1 and 3.9 μg mL^−1. Human red blood cells (RBCs) from a healthy volunteer were diluted to a concentration of 2 % in PBS. 100 μL of the RBC suspension was added to each well, and the reactions were incubated at 37 °C for 60 min, followed by 150 μL supernatant being transferred to a new 96-well plate (U-shaped well). The release of hemoglobin was determined by measuring the absorbance of the supernatant at 570 nm. RBCs in PBS and 0.1 % (v/v) Triton-X100 were used as the negative and positive controls, respectively. The percentage of hemolysis was calculated using the following formula: Hemolysis rate%=[(OD570of the treated sample-OD570of the negative control)/OD570of the positive control-OD570of the negative control]×100%. Each test was performed in triplicate, and the data were expressed as the mean ± SE.

[3] = system: Candida albicans (ATCC-2048); experiment: Antifungal MIC, broth microdilution with MTT; settings: most sensitive yeast
Method: as §1, §2, §3

[4] = system: Candida krusei (ATCC-6258); experiment: Antifungal MIC, broth microdilution with MTT; settings: most sensitive yeast
Method: as §1, §2, §3

[5] = system: Candida glabrata (ATCC-90525); experiment: Antifungal MIC, broth microdilution with MTT; settings: most sensitive yeast
Method: as §1, §2, §3

| Substance | MIC C. tropicalis [1] | 5 % Hemolysis [2] | hemolytic activity (in words) [2] | MIC C. albicans [3] | MIC C. krusei [4] | MIC C. glabrata [5] |
| --- | --- | --- | --- | --- | --- | --- |
| H-ALQGAKERAHQQ-OH [CGA-N12, NH2–ALQGAKERAHQQ–COOH] | 75 µM | 0.39 mmol/L | weak hemolytic activity at the concentration of MIC |  |  |  |
| H-ERILSILRHQNLLKE-OH [CGA-N15, NH2–ERILSILRHQNLLKE–COOH] | 73 µM | 0.031 mmol/L | strong hemolytic activity |  |  |  |
| H-GAKERAHQ-OH [CGA-N8, NH2–GAKERAHQ–COOH] |  | 0.27 mmol/L | MIC was near the concentration of its 5 % hemolysis | 240 µM | 240 µM |  |
| H-LQDLALQGAKERAHQQ-OH [CGA-N16, NH2–LQDLALQGAKERAHQQ–COOH] |  | 0.056 mmol/L | strong hemolytic activity |  |  | 280 µM |
| H-PMPVSQECFETLRGHERILSILRHQNLLKELQDLALQGAKERAHQQ-OH [CGA-N46] |  | 0.74 mmol/L | weak hemolytic activity at the concentration of MIC |  |  |  |
